Converted amounts (≈) assume the structure as drawn. Numbered stars: 1 amine (or outer) side, 2 acyl side, 3 side chain; on linkers, the order of the positions; unused ones are H or OH. Bridge positions count the residues as written; N and C are the ends. Square brackets hold non-standard residues; d marks the D form. Side chains are listed from the residue outwards. Ends that are not written are not given here. Peptide text beside a SMILES is read from it. I, II: the chains in the order shown. X1 = O=C(CO[*:1])[*:2]; βAla = NCCC(=O)O
Legend:
[1] = tested on: E. coli; format: cell-based
Description: (§1) The materials for radial diffusion assay were prepared as following:
(§2) Trypticase soy broth (TSB): Full-strength broth contains 30 grams of TSB powder per liter of deionized water. It was autoclaved at 120° C. for 20 min and stored at room temperature.
(§3) Underlay gel: 50 mL of […] sodium phosphate buffer, 5 ml full-strength TSB and 5 g agarose were mixed in a beaker followed by addition of deionized water to 500 mL. The medium was autoclaved at 120° C. for 20 min. Before use, it was maintained at 42° C. to prevent from solidifying.
(§4) Overlay gel: One liter of overlay gel contains 60 g of TSB powder and 10 g of agarose. The medium was autoclaved at 120° C. for 20 min. To prevent from solidifying, it was maintained at 42° C. before use.
(§5) The following protocol was applied to the radial diffusion assay.
(§6) 1. A single colony was picked and transferred into a 5 ml tube containing 2.5 ml TSB. The culture was shaken at 37° C. for 18 h.
(§7) 2. 50 μl of the stationary phase culture was diluted to 2.5 mL of autoclaved TSB (1:50 dilution) and shaken at 37° C. for another 3 h.
(§8) 3. This subculture was centrifuged at 5000 rpm for 5 min and the supernatant was discarded. The residual cells were washed with cold sterile 10 mM phosphate buffer, pH 7.4 and the buffer was discarded after centrifuge. 5 ml of the same buffer was added to resuspend the cells and its bacteria concentration was determined by measuring its optical density at 620 nm.
(§9) 4. 10 ml of antoclaved, molten underlay gel agar was transferred to a 15-ml eppendorf tube and mixed with 4×10^6 CFU of bacteria by vortexing. The mixture was then poured into a petri dish and gelled in less than […]. Wells were punched against the gel using a Pasteur pippette.
(§10) 5. Peptides to be tested were serially diluted and 3.5 μl of each sample was added to the well. The plates were incubated at 37° C. for 3 h with gel-side up.
(§11) 6. Next, each underlay gel was covered with 10 ml of overlay gel. After the gel solidified, the plates were turned gel-side up and incubated at 37° C. for overnight.
(§12) 7. The following morning, all the plates were taken out and the zone diameters were measured with ruler. All the samples were tested in duplicates and the results were averaged. The final minimum inhibition concentration (MIC) was determined using excel.
(§13) There is a growing interest to develop peptide-based antibiotics (Annu Rev Immunol. 1995, 13, 61-92; J Intern Med. 2003, 254, 197-215; Cent Eur J Biol 2007, 2, 1-33; Int J Pept Res Ther. 2010, 16, 199-213) because, compared with conventional antibiotics, they are less likely to develop drug resistance and have fewer side effects (J Med Chem. 2015, 58, 6533-6548; Biochemistry-Us. 2000, 39, 7159-7169; Eur J Biochem. 2000, 267, 3289-3300; Nucleic Acids Res. 2012, 40, W199-204). To apply the presently disclosed enzymatic method in preparing dendrimeric antimicrobials, inventors synthesized two antimicrobials 12 (bivalent) and 13 (tetravalent) (MS shown in supporting information) which harbored a tetrapeptide RLYR (SEQ ID NO:121) as the antibacterial sequence (Eur J Biochem. 2002, 269, 923-932) by ligating N-acetylated thiodepsipeptide 10 Ac-RLYRN-thioglc-V (SEQ ID NO:120) with dendron core 2 and 6 respectively. The RLYR (SEQ ID NO:121) tetrapeptide contains a BHHB motif (B=basic, H=hydrophobic) which is commonly found in certain potent and broad-spectrum β-stranded antimicrobial peptides (BioDrugs. 2013, 27, 479-493) such as PG (protegrins) (Febs Lett. 1993, 327, 231-236) and RTD-1 (rhesus monkey theta defensin) (Science. 1999, 286, 498-502). This consensus motif with positive charged and hydrophobic residues was successfully used as a dendrimeric antimicrobial in 2002 (Eur J Biochem. 2002, 269, 923-932). Such short peptide-based dendrimeric antimicrobials are broad-spectrum antibiotics and kill bacterial cells through electrostatic and hydrophobic interactions with the negatively charged microbial cytoplasmic membranes (Biochemistry-Us. 2009, 48, 5642-5657). […]

[2] = tested on: S. aureus; format: cell-based
Description: as §1, §2, §3, §4, §5, §6, §7, §8, §9, §10, §11, §12, §13

[3] = tested on: butelase 1; assay: Butelase-mediated ligation kinetic characterization (Lineweaver-Burk); format: biochemical, Clitoria ternatea; details: 0.1 μM butelase 1, 1 mM GIGGIR, peptide 25 to 400 μM, pH 6.5, 42° C.
Description: Ligation assays were performed in 50-μl mixtures containing reaction buffer (1 mM EDTA, 20 mM phosphate buffer, pH 6.5), 0.1 […] butelase 1, 1 mM GIGGIR (SEQ ID NO:114) and varying concentrations of peptides 1-4 (25 to 400 μM). The reactions were performed in triplicate at 42° C. and quenched by adding 5 μl of 1 M HCl solution. The peptides were separated by using a reversed-phase C18 analytical column (150×2.1 mm, Vydac) with a linear gradient from 5% to 40% acetonitrile over 15 min on a Nexera UHPLC system (Shimadzu). The ligation velocities were calculated by converting the HPLC-peak areas of remained linear precursors or the ligated products into concentrations. The identity of each HPLC peak was analyzed by MALDI-TOF MS (ABI 4800 MALDI TOF/TOF). The kinetic parameters (kcat and Km) for each peptide were obtained by the LineweaverBurk plot.

[4] = Degradation time course of peptide in reaction buffer without butelase 1 (HPLC); format: physicochemical; details: absence of butelase 1, peptide 100 μM, 42° C.
Description: (§14) FIG. 9. Degradation time course for thiodepsipeptide 1 and depsipeptide 2. Each peptide (100 μM) was incubated in the absence or presence of butelase 1 (50 nM) at 42° C. The peptide stability was monitored by HPLC every […].
(§15) To apply butelase 1 for N-terminal labeling of proteins, inventors used ubiquitin and green fluorescent protein (GFP) as examples (FIG. 4). Since butelase 1 prefers a hydrophobic amino acid (Ile/Leu/Val) or Cys at the P2″ position of an acceptor nucleophile, inventors prepared a recombinant ubiquitin protein (SEQ ID NO:122) with Gly-Ile at the N-terminus and His-tag at the C-terminus. It was also examined whether this method would work if His-tag was located at the N-terminus. Inventors thus prepared a recombinant GFP (SEQ ID NO:123) with an additional Ile inserted between the start codon and the N-terminal His-tag. Both proteins were labeled with the model thiodepsipeptide 1 in the presence of 0.001 molar equivalent of butelase 1. The labeling of proteins was slower as compared to the labeling of peptide 5, probably due to large differences in size between the model peptide and proteins. Furthermore, the N-terminal amino group of proteins may have a lower accessibility to butelase 1 as compared to peptides. […]

[5] = tested on: butelase 1; assay: Degradation time course of peptide in the presence of butelase 1 (HPLC); format: biochemical; details: Clitoria ternatea, butelase 1 in reaction buffer, presence of 0.0005 molar equivalent of butelase 1 (50 nM), peptide 100 μM, 42° C.
Description: as §14, §15

[6] = tested on: butelase 1; details: highest reported value; cited from earlier work

| Molecule | MIC [1] [µM] | MIC [2] [µM] | Km [3] [µM] | kcat [3] [s⁻¹] | also measured |
| --- | --- | --- | --- | --- | --- |
| CC[C@H](C)[C@H](NC(=O)[C@@H](N)CCCNC(=N)N)C(=O)NCCC(=O)NCCCC[C@H](NC(=O)CCNC(=O)[C@@H](NC(=O)[C@@H](N)CCCNC(=N)N)[C@@H](C)CC)C(=O)N[C@@H](Cc1ccc(O)cc1)C(N)=O [Bivalent dendron core 2, (RIβA)2KY] (H-RI[βAla]K([βAla-Ile-Arg])Y-NH2; N-terminus assumed) | >150 | >150 |  |  |  |
| CC[C@H](C)[C@H](NC(=O)[C@H](CCCNC(=N)N)NC(=O)[C@H](CC(N)=O)NC(=O)[C@H](CCCNC(=N)N)NC(=O)[C@H](Cc1ccc(O)cc1)NC(=O)[C@H](CC(C)C)NC(=O)[C@H](CCCNC(=N)N)NC(C)=O)C(=O)NCCC(=O)NCCCC[C@H](NC(=O)CCNC(=O)[C@@H](NC(=O)[C@H](CCCNC(=N)N)NC(=O)[C@H](CC(N)=O)NC(=O)[C@H](CCCNC(=N)N)NC(=O)[C@H](Cc1ccc(O)cc1)NC(=O)[C@H](CC(C)C)NC(=O)[C@H](CCCNC(=N)N)NC(C)=O)[C@@H](C)CC)C(=O)N[C@@H](Cc1ccc(O)cc1)C(N)=O [Dimer 12, (Ac-RLYRNRIβA)2KY] (I: Ac-RLYRNRI[βAla]KY-NH2 / II: Ac-RLYRNRI[βAla]; amide I:9-II:C) | 18.3 (≈ 45.4 µg/mL) | 3.4 (≈ 8.43 µg/mL) |  |  |  |
| CC(C)C[C@H](NC(=O)[C@@H](N)CCCNC(=N)N)C(=O)N[C@@H](Cc1ccc(O)cc1)C(=O)N[C@@H](CCCNC(=N)N)C(N)=O [Monomer 11, RLYR, reference compound] (H-RLYR-NH2; N-terminus assumed) | >300 | >300 |  |  | antimicrobial activity (in words) ([1]; E. coli, high-salt condition (100 mM NaCl)): no appreciable activity; antimicrobial activity (in words) ([2]; S. aureus, high-salt condition (100 mM NaCl)): no appreciable activity |
| CC(C)[C@H](NC(=O)CSC(=O)[C@H](CC(N)=O)NC(=O)[C@H](CCCCN)NC(=O)[C@@H](N)Cc1ccc(O)cc1)C(N)=O [Peptide 1, YKN(S)GV] |  |  | 2760 ± 300 | 56.5 ± 7.5 | half-life at 100 μM [4]: ~75 min; half-life at 100 μM [5]: 40 min |
| CC(C)[C@H](NC(=O)COC(=O)[C@H](CC(N)=O)NC(=O)[C@H](CCCCN)NC(=O)[C@@H](N)Cc1ccc(O)cc1)C(N)=O [Peptide 2, YKN(O)GV] (H-YKN[X1]V-NH2; N-terminus assumed) |  |  | 740 ± 10 | 12.4 ± 0.32 | half-life at 100 μM [4]: 45 min; half-life at 100 μM [5]: 37 min |
| CC[C@H](C)[C@H](NC(=O)[C@@H](N)CCCNC(=N)N)C(=O)NCCC(=O)NCCCC[C@H](NC(=O)CCNC(=O)[C@@H](NC(=O)[C@@H](N)CCCNC(=N)N)[C@@H](C)CC)C(=O)NCCCC[C@H](NC(=O)[C@H](CCCCNC(=O)CCNC(=O)[C@@H](NC(=O)[C@@H](N)CCCNC(=N)N)[C@@H](C)CC)NC(=O)CCNC(=O)[C@@H](NC(=O)[C@@H](N)CCCNC(=N)N)[C@@H](C)CC)C(=O)N[C@@H](Cc1ccc(O)cc1)C(N)=O [Tetravalent dendron core 6, (RIβA)4K2KY] | >150 | >150 |  |  |  |
| YKNGV (not fully specified (C-terminus)) [Peptide 4] |  |  | 880 ± 80 | 7.9 ± 0.72 |  |
| YKNHV (not fully specified (C-terminus)) [Peptide 3] |  |  | 300 ± 10 | 4.1 ± 0.65 |  |
| Butelase 1: Asn/Asp(Asx)-specific ligase isolated from the medicinal plant Clitoria ternatea (SEQ ID NO:1) (protein, listed as Clitoria ternatea) VEGTRWAVLVAGSKGYVNYRHQADVCHAYQILKKGGLKDENIIVFMYDDIAYNESNPHPGVIINHPYGSDVYKGVPKDYVGEDINPPNFYAVLLANKSALTGTGSGKVLDSGPNDHVFIYYTDHGGAGVLGMPSKPYIAASDLNDVLKKKHASGTYKSIVFYVESCESGSMFDGLLPEDHNIYVMGASDTGESSWVTYCPLQHPSPPPEYDVCVGDLFSVAWLEDCDVHNLQTETFQQQYEVVKNKTIVALIEDGTHVVQYGDVGLSKQTLFVYMGTDPANDNNTFTDKNSLGTPRKAVSQRDADLIHYWEKYRRAPEGSSRKAEAKKQLREVMAHRMHIDN |  |  |  |  | catalytic efficiency [6]: up to 542,000 M^−1 s^−1 |

— patent US11091786B2, “Butelase-mediated peptide ligation” (Nanyang Technological University, priority 2015, dated 2021)
